Assay results taken from US8816088B2 (Theravance, Inc., priority 2009, dated 2014).
Where a name gives a salt, the structure may show the parent alone. Read-outs that look alike come from different tables or passages of the source.

Tested on: MCh-induced bronchoconstriction
Experiment: Einthoven assay: bronchoprotection against methacholine (MCh)-induced bronchoconstriction
Type: in vivo
Details: inhaled or nasal
Method: This assay measures the ability of a test compound to provide bronchoprotection against methacholine (MCh)-induced bronchoconstriction in a rat. Male Sprague-Dawley rats (Harlan, Indianapolis, Ind.), weighing between 200 g and 350 g, were used for all studies. Test compound or vehicle (sterile deionized water) were dosed by inhalation (1H) over a 10 min period in a pie shaped inhalation chamber (R+S Molds, San Carlos, Calif.) using 5 mL of dosing solution. […] Rats were dosed with 100 μg of test compound unless otherwise indicated. At predetermined time points, rats were anesthetized with an intraperitoneal (IP) injection of 120 mg/kg inactin (thiobutabarbital). A supplemental dose (40 mg/kg, IP) was administered if the animal responded to physical stimuli (e.g. toe pinch). The surgical site was shaved and a 1-2 cm midline incision of the ventral aspect of the neck was made. The jugular vein was isolated and cannulated with a saline-filled polyethylene catheter (PE-50) to allow IV infusion of MCh. Trachea was dissected free and cannulated with a 14G needle (#NE-014, Small Parts, Miami Lakes, Fla.). After placement of the tracheal cannula, each rat was ventilated using a respirator (Model 683, Harvard Apparatus, Inc., MA) set at a stroke volume of 1 mL/100 g body weight (but not exceeding 2.5 mL volume) and a rate of 90 strokes per minute. A T-connector was placed along the respirator expiratory tubing to allow for measurement of changes in ventilation pressure (VP) using a Biopac transducer that was connected to a Biopac […]) pre-amplifier. Body temperature was maintained at 37° C. using a heating pad. Changes in VP were recorded using the Acknowledge Data Collection Software (Santa Barbara, Calif.). Baseline values were collected for at least 2.5 min. Rats were then challenged with non-cumulative intravenous (IV) infusions of 40 and 80 μg/kg MCh. MCh was infused intravenously for 2.5 minutes from a syringe pump (sp210iw, World Precision Instruments, Inc., Sarasota, Fla.) at a rate of 2 mL/kg/min, with a 2 minute interval between the two doses of MCh. Changes in ventilation pressure (cm H2O) in treated animals are expressed as % inhibition of MCh response relative to control animals. Other bronchoconstrictors, such as histamine and acetylcholine, can be used in place of MCh in this assay. Additionally, guinea pigs can be used instead of rats. […] Inhibition greater than or equal to 30 percent at 24 h is indicative of a long duration of action.

[1] = Rattus norvegicus, 24 h, read-out: Broncho. at 24 h, Bronchoprotective effect present at 24 h, 100 μg by inhalation, 24 h after administration

SMILES	inhibition in vivo at 0.1 mg [1] [%]	inhibition in vivo at 0.1 mg (rat, 100 μg by inhalation, 24 h after administration, read-out: Broncho. at 24 h, Bronchoprotective effect present at 24 h) [%]
CN(C(=O)CCN1CCC(OC(=O)Nc2ccccc2-c2ccccc2)CC1)c1ccc(CC(=O)NCc2ccc(CCNC[C@H](O)c3ccc(O)c4[nH]c(=O)ccc34)cc2)cc1 [Compound I-64, Biphenyl-2-ylcarbamic acid 1-[2-({4-[(4-{2-[(R)-2-hydroxy-2-(8-hydroxy-2-oxo-1,2-dihydroquinolin-5-yl)-ethylamino]ethyl}benzylcarbamoyl)methyl]phenyl}-methylcarbamoyl)ethyl]piperidin-4-yl ester ditrifluoroacetic acid salt]	< 30	–
Cc1ccc(C(=O)Nc2cccc(CCNC[C@H](O)c3ccc(O)c4[nH]c(=O)ccc34)c2)cc1N(C)C(=O)CCN1CCC(OC(=O)Nc2ccccc2-c2ccccc2)CC1 [Compound I-33, Biphenyl-2-ylcarbamic acid 1-(2-{[5-(3-{2-[(R)-2-hydroxy-2-(8-hydroxy-2-oxo-1,2-dihydroquinolin-5-yl)-ethylamino]ethyl}phenylcarbamoyl)-2-methylphenyl]-methylcarbamoyl}ethyl)piperidin-4-yl ester ditrifluoroacetic acid salt]	< 30	–
Cc1cc(NC(=O)c2cccc(N(C)C(=O)CCN3CCC(OC(=O)Nc4ccccc4-c4ccccc4)CC3)c2)c(C)cc1CNC[C@H](O)c1ccc(O)c2[nH]c(=O)ccc12 [Compound I-30, ditrifluoroacetic acid salt]	< 30	–
Cc1cc(CNC[C@H](O)c2ccc(O)c3[nH]c(=O)ccc23)ccc1NC(=O)CCCN(C)C(=O)CCN1CCC(OC(=O)Nc2ccccc2-c2ccccc2)CC1 [Compound I-2, Biphenyl-2-ylcarbamic acid 1-(2-{[3-(4-{[(R)-2-hydroxy-2-(8-hydroxy-2-oxo-1,2-dihydroquinolin-5-yl)ethylamino]methyl}-2-methylphenylcarbamoyl)-propyl]methylcarbamoyl}ethyl)piperidin-4-yl ester ditrifluoroacetic acid salt]	< 30	–
C[C@@H](Cc1cccc(CCNC(=O)c2ccc(N(C)C(=O)CCN3CCC(OC(=O)Nc4ccccc4-c4ccccc4)CC3)cc2)c1)NC[C@H](O)c1ccc(O)c2[nH]c(=O)ccc12 [Compound I-56, Biphenyl-2-ylcarbamic acid 1-[2-({4-[2-(3-{(S)-2-[(R)-2-hydroxy-2-(8-hydroxy-2-oxo-1,2-dihydroquinolin-5-yl)-ethylamino]propyl}phenyl)ethylcarbamoyl]phenyl}-methylcarbamoyl)ethyl]piperidin-4-yl ester ditrifluoroacetic acid salt]	< 30	–
C[C@@H](Cc1cccc(NC(=O)c2cccc(N(C)C(=O)CCN3CCC(OC(=O)Nc4ccccc4-c4ccccc4)CC3)c2)c1)NC[C@H](O)c1ccc(O)c2[nH]c(=O)ccc12 [Compound I-39, ditrifluoroacetic acid salt]	< 30	–
Cc1ccc(C(=O)Nc2cccc(CC(C)NC[C@H](O)c3ccc(O)c4[nH]c(=O)ccc34)c2)cc1N(C)C(=O)CCN1CCC(OC(=O)Nc2ccccc2-c2ccccc2)CC1 (stereo partly drawn) [Compound I-37, Biphenyl-2-ylcarbamic acid 1-(2-{[5-(3-{2-[(R)-2-hydroxy-2-(8-hydroxy-2-oxo-1,2-dihydroquinolin-5-yl)-ethylamino]propyl}phenylcarbamoyl)-2-methylphenyl]-methylcarbamoyl}ethyl)piperidin-4-yl ester ditrifluoroacetic acid salt]	< 30	–
Cc1ccc(C(=O)Nc2ccc(CC(C)NC[C@H](O)c3ccc(O)c4[nH]c(=O)ccc34)cc2)cc1N(C)C(=O)CCN1CCC(OC(=O)Nc2ccccc2-c2ccccc2)CC1 (stereo partly drawn) [Compound I-41, Biphenyl-2-ylcarbamic acid 1-(2-{[5-(4-{2-[(R)-2-hydroxy-2-(8-hydroxy-2-oxo-1,2-dihydroquinolin-5-yl)-ethylamino]propyl}phenylcarbamoyl)-2-methylphenyl]-methylcarbamoyl}ethyl)piperidin-4-yl ester]	–	< 30
